From ChEMBL document CHEMBL1146894, “Stereospecificity in hydroxyl radical scavenging activities of four ginsenosides produced by heat processing” (Bioorg Med Chem Lett, 2006)

How the values were obtained:
[1] = test system: Radical scavenging activity; assay: Hydroxyl radical scavenging activity at 2 mM; format: functional
[2] = test system: Radical scavenging activity; assay: Hydroxyl radical scavenging activity; format: functional

Structure (SMILES) | inhibition [1] | IC50 [2]
C=C(CCC=C(C)C)[C@H]1CC[C@]2(C)[C@@H]1[C@H](O)C[C@@H]1[C@@]3(C)CC[C@H](O[C@@H]4O[C@H](CO)[C@@H](O)[C@H](O)[C@H]4O[C@@H]4O[C@H](CO)[C@@H](O)[C@H](O)[C@H]4O)C(C)(C)[C@@H]3CC[C@]12C | 68% | 
O=C(O[C@@H]1Cc2c(O)cc(O)cc2O[C@@H]1c1cc(O)c(O)c(O)c1)c1cc(O)c(O)c(O)c1 [EPIGALOCATECHIN GALLATE] |  | 3760 µM
CC(C)=CCC[C@](C)(O)[C@H]1CC[C@]2(C)[C@@H]1[C@H](O)C[C@@H]1[C@@]3(C)CC[C@H](O[C@@H]4O[C@H](CO)[C@@H](O)[C@H](O)[C@H]4O[C@@H]4O[C@H](CO)[C@@H](O)[C@H](O)[C@H]4O)C(C)(C)[C@@H]3CC[C@]12C | 20% | 440 µM
CC(C)=CC/C=C(\C)[C@H]1CC[C@]2(C)[C@@H]1[C@H](O)C[C@@H]1[C@@]3(C)CC[C@H](O[C@@H]4O[C@H](CO)[C@@H](O)[C@H](O)[C@H]4O[C@@H]4O[C@H](CO)[C@@H](O)[C@H](O)[C@H]4O)C(C)(C)[C@@H]3CC[C@]12C [GINSENOSIDE RG5] | 16% | 150 µM
CC(C)=CCC[C@@](C)(O)[C@H]1CC[C@]2(C)[C@@H]1[C@H](O)C[C@@H]1[C@@]3(C)CC[C@H](O[C@@H]4O[C@H](CO)[C@@H](O)[C@H](O)[C@H]4O[C@@H]4O[C@H](CO)[C@@H](O)[C@H](O)[C@H]4O)C(C)(C)[C@@H]3CC[C@]12C | 72% | 
